Test results reported in patent publication US8962613B2, “P2X4 receptor antagonist” (Nippon Chemiphar Co., Ltd., priority 2010, dated 2015).
Where a name gives a salt, the structure may show the parent alone. Read-outs that look alike come from different tables or passages of the source.

Target: T1, human P2X4 receptors (Homo sapiens, UniProt Q99571)
T1 sequence (Q99571 1-388): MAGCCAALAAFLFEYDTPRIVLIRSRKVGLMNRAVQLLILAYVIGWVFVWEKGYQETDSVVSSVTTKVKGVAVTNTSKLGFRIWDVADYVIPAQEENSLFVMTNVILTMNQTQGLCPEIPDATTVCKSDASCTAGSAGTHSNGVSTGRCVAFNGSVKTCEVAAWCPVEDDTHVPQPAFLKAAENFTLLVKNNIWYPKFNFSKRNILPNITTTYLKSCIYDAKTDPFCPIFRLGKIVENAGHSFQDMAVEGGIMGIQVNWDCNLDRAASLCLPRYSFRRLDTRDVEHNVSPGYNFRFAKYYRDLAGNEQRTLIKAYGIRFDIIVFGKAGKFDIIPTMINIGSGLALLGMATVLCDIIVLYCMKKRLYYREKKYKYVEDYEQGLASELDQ
Test: P2X4 receptor antagonism, intracellular calcium influx assay (Fura-2 AM, ATP-induced)
Assay type: cell-based
Details: for IC50: 1321N1 cells stably expressing human P2X4 receptors, compound added 15 min before ATP, read-out: Inhibition activities (IC50 μM)
Protocol: 1321N1 cells stably expressing human P2X4 receptors were adopted for calcium influx assay. P2X4/1321N1 cells were plated in 96-well assay plate and cultured for 24 hours in an atmosphere of 5% CO2 at 37° C. Fura-2 AM calcium indicator dissolved in an extracellular solution for calcium imaging was loaded onto cells for 45 minutes at room temperature. The fluorescence was detected by FLUOstar OPTIMA micro plate reader (BMG labtech). The cells were alternatively illuminated with two excitations wavelengths (340 nm and 380 nm) via xenon lamp and the emitted fluorescence was measured at 510 nm. The fluorescence changes after the treatment of 1 μM ATP were monitored and determined the fluorescence ratio (F340/F380) as the index of intracellular calcium change. Tested compounds were treated to cells 15 min before the addition of ATP and the inhibition activities of compounds were calculated by comparing the Ca^2+ response with control in the absence of tested compound.
P2X4 receptor antagonism of the compound of the present invention was measured as described below.
1321N1 cells stably expressing human P2X4 receptors were plated in 96-well assay plate and cultured for 24 hours at 37° C. in an atmosphere of 5% CO2 for intracellular calcium assay. Fura-2 AM calcium fluorescent indicator was used for the intracellular calcium assay. Fura-2 AM was dissolved in an assay buffer, and the solution was loaded onto cells. The obtained plate was used for fluorescent assay.
Test compounds were treated to cells for 15 minutes before the addition of ATP, and the response to intracellular calcium influx induced by addition of ATP was monitored by a micro plate reader. The fluorescence ratio of excitations wavelengths of 340 nm and 380 nm was used as the index of intracellular calcium change. The inhibition activities of the test compounds were calculated by comparison with the absence of the test compound (control).

[1] = Table 20, same manner as in Example 19
[2] = Table 19, fluorescence ratio F340/F380 vs control

Structure (SMILES)	IC50 [1] [µM]	also measured
O=C1CC(=O)N(c2ccc(O)cc2)c2ccc3c(c2N1)CCCC3 [Example 14, 5-(4-Hydroxyphenyl)-1,5,8,9,10,11-hexahydronaphtho[1,2-b][1,4]diazepine-2,4-dione]	3.8	
O=C1CC(=O)N(c2cccc(-c3nnn[nH]3)c2)c2ccc3c(c2N1)CCCC3.[Na] [Example 2, 5-[3-(1H-Tetrazol-5-yl)phenyl]-8,9,10,11-tetrahydronaphtho[2,1-b][1,4]diazepine-2,4(3H,5H)-dione sodium salt]		P2X4 receptor antagonism (in words) (summary statement on Tables 19 and 20): excellent P2X4 receptor antagonism
Nc1ccc(N2C(=O)CC(=O)Nc3c2ccc2c3CCCC2)cc1 [Example 10, 5-(4-Aminophenyl)-1,5,8,9,10,11-hexahydronaphtho[1,2-b][1,4]diazepine-2,4-dione]	6.1	
Nc1cccc(N2C(=O)CC(=O)Nc3c2ccc2c3CCCC2)c1 [Example 8, 5-(3-Aminophenyl)-1,5,8,9,10,11-hexahydronaphtho[1,2-b][1,4]diazepine-2,4-dione hydrochloride]	4	
O=C1CC(=O)N(c2cccc(O)c2)c2ccc3c(c2N1)CCCC3 [Example 3, 5-(3-Hydroxyphenyl)-8,9,10,11-tetrahydronaphtho[2,1-b][1,4]diazepine-2,4(3H,5H)-dione]		IC50 [2]: 3.9 µM
O=C1CC(=O)N(c2cccc(-c3nnn[nH]3)c2)c2ccc3c(c2N1)CCC3 [Example 5, 5-[3-(1H-Tetrazol-5-yl)phenyl]-5,8,9,10-tetrahydroindeno[5,4-b][1,4]diazepine-2,4(1H,3H)-dione sodium salt]		IC50 [2]: 0.97 µM
CNc1ccc(N2C(=O)CC(=O)Nc3c2ccc2c3CCCC2)cc1 [Example 11, 5-(4-Methylaminophenyl)-1,5,8,9,10,11-hexahydronaphtho[1,2-b][1,4]diazepine-2,4-dione hydrochloride]	3.3	
COc1ccc(N2C(=O)CC(=O)Nc3c2ccc2c3CCCC2)cc1 [Example 13, 5-(4-Methoxyphenyl)-1,5,8,9,10,11-hexahydronaphtho[1,2-b][1,4]diazepine-2,4-dione]	6.9	
